Patent US20230303565A1, “PESTICIDALLY ACTIVE HETEROCYCLIC DERIVATIVES WITH SULFUR CONTAINING SUBSTITUENTS” (SYNGENTA CROP PROTECTION AG, priority 2020, published 2023)

How the values were obtained:
Assay type in all cases: in vivo
[1] = test system: Chilo suppressalis (Striped Rice Stemborer); test: Activity against Chilo suppressalis (striped rice stemborer), artificial diet in 24-well plates; settings: 144 h, application rate of 200 ppm, L2 larvae, 6 days after infestation, in comparison to untreated samples, read-out: control (at least one of mortality, anti-feedant effect, growth inhibition)
Experimental: Example B1: Activity Against Chilo suppressalis (Striped Rice Stemborer)
24-well microtiter plates with artificial diet were treated with aqueous test solutions prepared from 10′000 ppm DMSO stock solutions by pipetting. After drying, the plates were infested with L2 larvae (6-8 per well). The samples were assessed for mortality, anti-feeding effect, and growth inhibition in comparison to untreated samples 6 days after infestation. Control of Chilo suppressalis by a test sample is given when at least one of the categories mortality, anti-feedant effect, and growth inhibition is higher than the untreated sample.

[2] = test system: Diabrotica Balteata (Corn Root Worm); test: Activity against Diabrotica balteata (corn root worm), maize sprouts on agar; settings: 96 h, application rate of 200 ppm, L2 larvae, 4 days after infestation, in comparison to untreated samples, read-out: effect in at least one of the two categories (mortality or growth inhibition)
Experimental: Example B2: Activity Against Diabrotica Balteata (Corn Root Worm)
Maize sprouts placed onto an agar layer in 24-well microtiter plates were treated with aqueous test solutions prepared from 10′000 ppm DMSO stock solutions by spraying. After drying, the plates were infested with L2 larvae (6 to 10 per well). The samples were assessed for mortality and growth inhibition in comparison to untreated samples 4 days after infestation.

[3] = test system: Euschistus heros (Neotropical Brown Stink Bug); test: Activity against Euschistus heros (neotropical brown stink bug), soybean leaves on agar; settings: 120 h, application rate of 200 ppm, N2 nymphs, 5 days after infestation, in comparison to untreated samples, read-out: effect in at least one of the two categories (mortality or growth inhibition)
Experimental: Example B3: Activity Against Euschistus heros (Neotropical Brown Stink Bug)
Soybean leaves on agar in 24-well microtiter plates were sprayed with aqueous test solutions prepared from 10′000 ppm DMSO stock solutions. After drying the leaves were infested with N2 nymphs. The samples were assessed for mortality and growth inhibition in comparison to untreated samples 5 days after infestation.

[4] = test system: Frankliniella occidentalis (Western Flower Thrips); test: Activity against Frankliniella occidentalis (western flower thrips), feeding/contact activity, sunflower leaf discs; settings: foliar, 168 h, application rate of 200 ppm, population of mixed ages, 7 days after infestation
Experimental: Example B4: Activity Against Frankliniella occidentalis (Western Flower Thrips) Feeding/Contact Activity
Sunflower leaf discs were placed on agar in 24-well microtiter plates and sprayed with aqueous test solutions prepared from […] stock solutions. After drying the leaf discs were infested with a Frankliniella population of mixed ages. The samples were assessed for mortality 7 days after infestation.

[5] = test system: Myzus persicae (Green Peach Aphid); test: Activity against Myzus persicae (green peach aphid), feeding/contact activity, sunflower leaf discs; settings: foliar, 144 h, application rate of 200 ppm, aphid population of mixed ages, 6 days after infestation
Experimental: Example B5: Activity Against Myzus persicae (Green Peach Aphid) Feeding/Contact Activity
Sunflower leaf discs were placed onto agar in a 24-well microtiter plate and sprayed with aqueous test solutions prepared from 10′000 ppm DMSO stock solutions. After drying, the leaf discs were infested with an aphid population of mixed ages. The samples were assessed for mortality 6 days after infestation.

[6] = test system: Plutella xylostella (Diamond Back Moth); test: Activity against Plutella xylostella (diamond back moth), artificial diet in 24-well plates; settings: 192 h, application rate of 200 ppm, Plutella eggs, 8 days after infestation, in comparison to untreated samples, read-out: effect in at least one of the two categories (mortality or growth inhibition)
Experimental: Example B6: Activity Against Plutella xylostella (Diamond Back Moth)
24-well microtiter plates with artificial diet were treated with aqueous test solutions prepared from 10′000 ppm DMSO stock solutions by pipetting. After drying, Plutella eggs were pipetted through a plastic stencil onto a gel blotting paper and the plate was closed with it. The samples were assessed for mortality and growth inhibition in comparison to untreated samples 8 days after infestation.

[7] = test system: Spodoptera littoralis (Egyptian Cotton Leaf Worm); test: Activity against Spodoptera littoralis (Egyptian cotton leaf worm), cotton leaf discs; settings: foliar, 72 h, application rate of 200 ppm, L1 larvae, 3 days after infestation, in comparison to untreated samples, read-out: control (at least one of mortality, anti-feedant effect, growth inhibition)
Experimental: Example B7: Activity Against Spodoptera littoralis (Egyptian Cotton Leaf Worm)
Cotton leaf discs were placed onto agar in 24-well microtiter plates and sprayed with aqueous test solutions prepared from 10′000 ppm DMSO stock solutions. After drying the leaf discs were infested with five L1 larvae. The samples were assessed for mortality, anti-feeding effect, and growth inhibition in comparison to untreated samples 3 days after infestation. Control of Spodoptera littoralis by a test sample is given when at least one of the categories mortality, anti-feedant effect, and growth inhibition is higher than the untreated sample.

[8] = test system: Carpocapsa (Cydia) Pomonella (Codling Moth); test: Activity against Carpocapsa (Cydia) pomonella (codling moth), larvicide, feeding/contact, diet cubes; settings: 336 h, application rate of 12.5 ppm, L1 larvae, 14 days after infestation, 26-27° C.
Experimental: Example B9: Activity Against Carpocapsa (Cydia) Pomonella (Codling Moth)) Larvicide, Feeding/Contact
Diet cubes coated with paraffin were sprayed with diluted test solutions in an application chamber. After drying off the treated cubes (10 replicates) were infested with 1 L1 larvae. Samples were incubated at 26-27° C. and checked 14 days after infestation for mortality and growth inhibition.

[9] = test system: Bemisia tabaci (Cotton White Fly); test: Activity against Bemisia tabaci (cotton white fly), cotton leaf discs; settings: foliar, 144 h, application rate of 200 ppm, adult white flies, 6 days after incubation
Experimental: Example B8: Activity Against Bemisia tabaci (Cotton White Fly)
Cotton leaf discs were placed on agar in 24-well microtiter plates and sprayed with aqueous test solutions prepared from 10′000 ppm DMSO stock solutions. After drying the leaf discs were infested with adult white flies. The samples were checked for mortality 6 days after incubation.

CCS(=O)(=O)c1c(N2Cc3ccc(C4(C#N)CC4)cc3C2=O)nc2ccc(C(F)(F)F)cn12 [P1, 1-[2-[3-ethylsulfonyl-6-(trifluoromethyl)imidazo[1,2-a]pyridin-2-yl]-3-oxo-isoindolin-5-yl]cyclopropanecarbonitrile]
≥ 80%: percent control (mortality, anti-feedant effect or growth inhibition) at 200 ppm [1] | percent effect (mortality or growth inhibition) at 200 ppm [2] | percent effect (mortality or growth inhibition) at 200 ppm [3] | mortality at 200 ppm [4] | mortality at 200 ppm [5] | percent effect (mortality or growth inhibition) at 200 ppm [6] | percent control (mortality, anti-feedant effect or growth inhibition) at 200 ppm [7] | mortality at 12.5 ppm [8]

CCS(=O)(=O)c1c(N2Cc3ncc(C4(C#N)CC4)cc3C2=O)nc2ccc(C(F)(F)F)cn12 [P2, 1-[6-[3-ethylsulfonyl-6-(trifluoromethyl)imidazo[1,2-a]pyridin-2-yl]-5-oxo-7H-pyrrolo[3,4-b]pyridin-3-yl]cyclopropanecarbonitrile]
≥ 80%: percent control (mortality, anti-feedant effect or growth inhibition) at 200 ppm [1] | percent effect (mortality or growth inhibition) at 200 ppm [2] | percent effect (mortality or growth inhibition) at 200 ppm [3] | mortality at 200 ppm [4] | mortality at 200 ppm [5] | percent effect (mortality or growth inhibition) at 200 ppm [6] | percent control (mortality, anti-feedant effect or growth inhibition) at 200 ppm [7] | mortality at 12.5 ppm [8]

CCS(=O)(=O)c1c(N2Cc3ccc(C4(C#N)CC4)cc3C2=O)nn2ccc(C(F)(F)F)cc12 [P3, 1-[2-[3-ethylsulfonyl-5-(trifluoromethyl)pyrazolo[1,5-a]pyridin-2-yl]-3-oxo-isoindolin-5-yl]cyclopropanecarbonitrile]
≥ 80%: percent control (mortality, anti-feedant effect or growth inhibition) at 200 ppm [1] | percent effect (mortality or growth inhibition) at 200 ppm [2] | percent effect (mortality or growth inhibition) at 200 ppm [6] | percent control (mortality, anti-feedant effect or growth inhibition) at 200 ppm [7] | mortality at 200 ppm [9]

CCS(=O)(=O)c1c(N2Cc3ccc(C4(C#N)CC4)cc3C2=O)nc2ccc(C(C)(F)F)cn12 [P4, 1-[2-[6-(1,1-difluoroethyl)-3-ethylsulfonyl-imidazo[1,2-a]pyridin-2-yl]-3-oxo-isoindolin-5-yl]cyclopropanecarbonitrile]
≥ 80%: percent control (mortality, anti-feedant effect or growth inhibition) at 200 ppm [1] | percent effect (mortality or growth inhibition) at 200 ppm [2] | mortality at 200 ppm [5] | percent effect (mortality or growth inhibition) at 200 ppm [6] | percent control (mortality, anti-feedant effect or growth inhibition) at 200 ppm [7] | mortality at 200 ppm [9] | mortality at 12.5 ppm [8]

CCS(=O)(=O)c1c(N2Cc3ccc(C4(C#N)CC4)cc3C2=O)nc2ccc(C3CC3)cn12 [P5, 1-[2-(6-cyclopropyl-3-ethylsulfonyl-imidazo[1,2-a]pyridin-2-yl)-3-oxo-isoindolin-5-yl]cyclopropanecarbonitrile]
≥ 80%: percent control (mortality, anti-feedant effect or growth inhibition) at 200 ppm [1] | percent effect (mortality or growth inhibition) at 200 ppm [2] | percent effect (mortality or growth inhibition) at 200 ppm [6] | percent control (mortality, anti-feedant effect or growth inhibition) at 200 ppm [7]

CCS(=O)(=O)c1c(N2Cc3ccc(C4(C#N)CC4)cc3C2=O)nc2ccc(C3(C#N)CC3)cn12 [P6, 1-[2-[6-(1-cyanocyclopropyl)-3-ethylsulfonyl-imidazo[1,2-a]pyridin-2-yl]-3-oxo-isoindolin-5-yl]cyclopropanecarbonitrile]
≥ 80%: percent control (mortality, anti-feedant effect or growth inhibition) at 200 ppm [1] | percent effect (mortality or growth inhibition) at 200 ppm [2] | mortality at 200 ppm [4] | mortality at 200 ppm [5] | percent effect (mortality or growth inhibition) at 200 ppm [6] | percent control (mortality, anti-feedant effect or growth inhibition) at 200 ppm [7] | mortality at 200 ppm [9] | mortality at 12.5 ppm [8]

CCS(=O)(=O)c1c(N2Cc3ccc(C4(C#N)CC4)cc3C2=O)nc2ccc(C(C)(C)C#N)cn12 [P7, 1-[2-[6-(1-cyano-1-methyl-ethyl)-3-ethylsulfonyl-imidazo[1,2-a]pyridin-2-yl]-3-oxo-isoindolin-5-yl]cyclopropanecarbonitrile]
≥ 80%: percent control (mortality, anti-feedant effect or growth inhibition) at 200 ppm [1] | percent effect (mortality or growth inhibition) at 200 ppm [2] | percent effect (mortality or growth inhibition) at 200 ppm [6] | percent control (mortality, anti-feedant effect or growth inhibition) at 200 ppm [7]

CCS(=O)(=O)c1c(N2Cc3ccc(S(=O)(=O)C4CC4)cc3C2=O)nc2ccc(C(F)(F)F)cn12 [P8, 6-cyclopropylsulfonyl-2-[3-ethylsulfonyl-6-(trifluoromethyl)imidazo[1,2-a]pyridin-2-yl]isoindolin-1-one]
≥ 80%: percent control (mortality, anti-feedant effect or growth inhibition) at 200 ppm [1] | percent effect (mortality or growth inhibition) at 200 ppm [2] | mortality at 200 ppm [5] | percent effect (mortality or growth inhibition) at 200 ppm [6] | percent control (mortality, anti-feedant effect or growth inhibition) at 200 ppm [7] | mortality at 12.5 ppm [8]

CCS(=O)(=O)c1c(N2Cc3ccc(OC(C)(C)C#N)cc3C2=O)nc2ccc(C(F)(F)F)cn12 [P9, 2-[2-[3-ethylsulfonyl-6-(trifluoromethyl)imidazo[1,2-a]pyridin-2-yl]-3-oxo-isoindolin-5-yl]oxy-2-methyl-propanenitrile]
≥ 80%: percent control (mortality, anti-feedant effect or growth inhibition) at 200 ppm [1] | percent effect (mortality or growth inhibition) at 200 ppm [2] | mortality at 200 ppm [5] | percent effect (mortality or growth inhibition) at 200 ppm [6] | percent control (mortality, anti-feedant effect or growth inhibition) at 200 ppm [7] | mortality at 200 ppm [9]

CCS(=O)(=O)c1c(N2Cc3cnc(C4CC4)cc3C2=O)nc2ccc(C(F)(F)F)cn12 [P10, 6-cyclopropyl-2-[3-ethylsulfonyl-6-(trifluoromethyl)imidazo[1,2-a]pyridin-2-yl]-3H-pyrrolo[3,4-c]pyridin-1-one]
≥ 80%: percent control (mortality, anti-feedant effect or growth inhibition) at 200 ppm [1] | percent effect (mortality or growth inhibition) at 200 ppm [2] | percent effect (mortality or growth inhibition) at 200 ppm [6] | percent control (mortality, anti-feedant effect or growth inhibition) at 200 ppm [7]

CCS(=O)(=O)c1c(N2Cc3ncc(C4CC4)cc3C2=O)nc2ccc(C(F)(F)F)cn12 [P11, 3-cyclopropyl-6-[3-ethylsulfonyl-6-(trifluoromethyl)imidazo[1,2-a]pyridin-2-yl]-7H-pyrrolo[3,4-b]pyridin-5-one]
≥ 80%: percent control (mortality, anti-feedant effect or growth inhibition) at 200 ppm [1] | percent effect (mortality or growth inhibition) at 200 ppm [6] | percent control (mortality, anti-feedant effect or growth inhibition) at 200 ppm [7]

CCS(=O)(=O)c1c(N2Cc3ccc(C4CC4)cc3C2=O)nc2ccc(C(F)(F)F)cn12 [P12, 6-cyclopropyl-2-[3-ethylsulfonyl-6-(trifluoromethyl)imidazo[1,2-a]pyridin-2-yl]isoindolin-1-one]
≥ 80%: percent control (mortality, anti-feedant effect or growth inhibition) at 200 ppm [1] | percent effect (mortality or growth inhibition) at 200 ppm [2] | percent effect (mortality or growth inhibition) at 200 ppm [6] | percent control (mortality, anti-feedant effect or growth inhibition) at 200 ppm [7]
